Reference: BindingDB's records for doi:10.1016/j.bmc.2017.05.049 (Peking University, 2017)

What was measured:
[1] = Inhibition of PGPH-like activity of 20S proteasome in human HL60 cells using Z-nLPnLDaminoluciferin as substrate pretreated for 2 hrs followed by substrate addition by […] assay
[2] = Inhibition of trypsin-like activity of 20S proteasome in human HL60 cells using Z-LRRaminoluciferin as substrate pretreated for 2 hrs followed by substrate addition by […] assay

`CC(C)C[C@H](NC(=O)OCc1ccccc1)C(=O)N[C@@H](Cc1ccc2ccccc2c1)C(=O)N1CCC[C@H]1B(O)O` showed an IC50 [1] of 1.25 µM and an IC50 [2] of 1.66 µM.
